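Five concentrations, 48 hours, 96-well plates. TGI marks complete inhibition of growth.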
Experiments:
Test in all cases: growth of human tumour cells (NCI), 48 h
786-0 renal = tested on: 786-0 renal
A549 NSCLC = tested on: A549 NSCLC
ACHN renal = tested on: ACHN renal
CCRF-CEM leukemia = tested on: CCRF-CEM leukemia
COLO 205 colon = tested on: COLO 205 colon
DMS 114 small cell lung = tested on: DMS 114 small cell lung
DMS 273 small cell lung = tested on: DMS 273 small cell lung
EKVX NSCLC = tested on: EKVX NSCLC
HCT-116 colon = tested on: HCT-116 colon
HCT-15 colon = tested on: HCT-15 colon
HL-60(TB) leukemia = tested on: HL-60(TB) leukemia
HOP-18 NSCLC = tested on: HOP-18 NSCLC
HOP-62 NSCLC = tested on: HOP-62 NSCLC
HT29 colon = tested on: HT29 colon
K-562 leukemia = tested on: K-562 leukemia
KM12 colon = tested on: KM12 colon
KM20L2 colon = tested on: KM20L2 colon
LOX IMVI melanoma = tested on: LOX IMVI melanoma
LXFL 529 NSCLC = tested on: LXFL 529 NSCLC
M14 melanoma = tested on: M14 melanoma
M19-MEL melanoma = tested on: M19-MEL melanoma
MALME-3M melanoma = tested on: MALME-3M melanoma
MOLT-4 leukemia = tested on: MOLT-4 leukemia
NCI-H226 lung = tested on: NCI-H226 lung
NCI-H23 lung = tested on: NCI-H23 lung
NCI-H460 lung = tested on: NCI-H460 lung
NCI-H522 lung = tested on: NCI-H522 lung
OVCAR-4 ovarian = tested on: OVCAR-4 ovarian
OVCAR-8 ovarian = tested on: OVCAR-8 ovarian
RPMI-8226 leukemia = tested on: RPMI-8226 leukemia
RXF 393 renal = tested on: RXF 393 renal
SF-268 CNS = tested on: SF-268 CNS
SF-295 CNS = tested on: SF-295 CNS
SK-MEL-2 melanoma = tested on: SK-MEL-2 melanoma
SK-MEL-28 melanoma = tested on: SK-MEL-28 melanoma
SK-MEL-5 melanoma = tested on: SK-MEL-5 melanoma
SK-OV-3 ovarian = tested on: SK-OV-3 ovarian
SN12C renal = tested on: SN12C renal
SNB-19 CNS = tested on: SNB-19 CNS
SNB-75 CNS = tested on: SNB-75 CNS
SNB-78 CNS = tested on: SNB-78 CNS
SR leukemia = tested on: SR leukemia
SW-620 colon = tested on: SW-620 colon
TK-10 renal = tested on: TK-10 renal
U251 CNS = tested on: U251 CNS
UACC-257 melanoma = tested on: UACC-257 melanoma
UACC-62 melanoma = tested on: UACC-62 melanoma
UO-31 renal = tested on: UO-31 renal
XF 498 CNS = tested on: XF 498 CNS
A498 renal = tested on: A498 renal
CAKI-1 renal = tested on: CAKI-1 renal
DLD-1 colon = tested on: DLD-1 colon
HCC-2998 colon = tested on: HCC-2998 colon
HOP-92 NSCLC = tested on: HOP-92 NSCLC
IGROV1 ovarian = tested on: IGROV1 ovarian
OVCAR-3 ovarian = tested on: OVCAR-3 ovarian
OVCAR-5 ovarian = tested on: OVCAR-5 ovarian
SF-539 CNS = tested on: SF-539 CNS

Measured: TGI

Cc1ccc(NC(=O)CSc2nnc(Cc3ccccc3)o2)c(C)c1
> 100 µM: 786-0 renal | A549 NSCLC | ACHN renal | CCRF-CEM leukemia | COLO 205 colon | DMS 114 small cell lung | DMS 273 small cell lung | EKVX NSCLC | HCT-116 colon | HCT-15 colon | HL-60(TB) leukemia | HOP-18 NSCLC | HOP-62 NSCLC | HT29 colon | K-562 leukemia | KM12 colon | KM20L2 colon | LOX IMVI melanoma | LXFL 529 NSCLC | M14 melanoma | M19-MEL melanoma | MALME-3M melanoma | MOLT-4 leukemia | NCI-H226 lung | NCI-H23 lung | NCI-H460 lung | NCI-H522 lung | OVCAR-4 ovarian | OVCAR-8 ovarian | RPMI-8226 leukemia | RXF 393 renal | SF-268 CNS | SF-295 CNS | SK-MEL-2 melanoma | SK-MEL-28 melanoma | SK-MEL-5 melanoma | SK-OV-3 ovarian | SN12C renal | SNB-19 CNS | SNB-75 CNS | SNB-78 CNS | SR leukemia | SW-620 colon | TK-10 renal | U251 CNS | UACC-257 melanoma | UACC-62 melanoma | UO-31 renal | XF 498 CNS

C[C@H](NS(=O)(=O)c1ccc(NC(=O)c2ccccc2)cc1)C(=O)O
> 100 µM: 786-0 renal | A498 renal | A549 NSCLC | ACHN renal | CAKI-1 renal | CCRF-CEM leukemia | COLO 205 colon | DLD-1 colon | DMS 273 small cell lung | EKVX NSCLC | HCC-2998 colon | HCT-15 colon | HL-60(TB) leukemia | HOP-18 NSCLC | HOP-92 NSCLC | HT29 colon | IGROV1 ovarian | K-562 leukemia | KM12 colon | KM20L2 colon | LOX IMVI melanoma | LXFL 529 NSCLC | M14 melanoma | M19-MEL melanoma | MALME-3M melanoma | MOLT-4 leukemia | NCI-H23 lung | NCI-H460 lung | NCI-H522 lung | OVCAR-3 ovarian | OVCAR-4 ovarian | OVCAR-5 ovarian | OVCAR-8 ovarian | RPMI-8226 leukemia | RXF 393 renal | SF-268 CNS | SF-295 CNS | SF-539 CNS | SK-MEL-2 melanoma | SK-MEL-28 melanoma | SK-MEL-5 melanoma | SK-OV-3 ovarian | SN12C renal | SNB-19 CNS | SNB-75 CNS | SW-620 colon | TK-10 renal | U251 CNS | UACC-257 melanoma | UACC-62 melanoma | UO-31 renal | XF 498 CNS

Source: PubChem BioAssay (NCI)
